According to US20060234909A1, “Compositions and methods for increasing drug efficiency” (priority 2003, published 2006):
Primed or numbered codes have the meaning given here. * marks the point of attachment. 10Ca‑PXL = paclitaxel conjugated at C10 via a carbamate; 3Am‑VBL = vinblastine (VBL) conjugate; 3Am‑VBL″ = vinblastine conjugate; PEG(13)″ = PEG(13) linker; PEG(11) = PEG(11) linker; DMAB = not defined here; 3Am = not defined here; Cbz = O=C(OCc1ccccc1)*; PEG(13) = PEG13 linker; Piv = CC(C)(C)C(=O)*; VBL = vinblastine

Assays:
[1] = Serum stability in RPMI1640 medium containing 10% fetal bovine serum; assay type: in vitro ADME
Method: The stability of conjugates was measured in RPMI1640 cell culture medium containing 10% fetal bovine serum. The serum-containing medium was pre-warmed at 37° C. for 3 min prior to addition of test articles. Test articles, prepared in DMSO as 5 mM stocks, were added to the cell culture media to a final concentration of 10 μM. Aliquots ([…]) were withdrawn in triplicate at 0, 4, 8, 24 and 72 hours and combined with the same volume of ice-cold acetonitrile to terminate the reaction. The mixture was centrifuged at 2,000×g for 10 minutes. One part of the supernatant was mixed with four parts of deionized water to bring down the percentage of organic solvent. The diluted samples were then assayed by LC/MS for the test article. The natural log of the percent remaining was plotted versus time. A linear fit was used to determine the rate constant. The fit was truncated after the percent of remaining test article was less than 10%. The elimination half-lives associated with the disappearance of test articles were determined to compare their relative stability. The assays were carried out by Absorption Systems (Exton, Pa.).

tubulin = experiment: Fluorescence-based tubulin polymerization assay (MPA; enhancement for paclitaxel, inhibition for vinblastine); assay type: biochemical
In short: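 Tubulin polymerisation was followed by fluorescence (ex 360/em 405 nm) with 1 mg/ml BSA in all assays. For paclitaxel conjugates, glycerol was omitted. Parent drugs and conjugates were tested at 0.75, 1.5, 3 and 10 micromolar final, and values come from the linear range of the dose responses.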

MCF-7 breast carcinoma = experiment: Cytotoxicity assay (monolayer), MCF-7; assay type: cell-based; conditions: MCF7, ML (monolayer); read-out: MCF7 (EC50 Ave) ML;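 further: cells treated 72 h with 6-8 compound doses versus DMSO vehicle controls, EC50 fitted by 4-parameter dose-response curves, averaged across all tests and lots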
[2] = system: HT-29 colorectal carcinoma; experiment: Cytotoxicity assay (monolayer), HT-29; assay type: cell-based; conditions: HT29, ML (monolayer); read-out: HT29 (EC50 Ave) ML;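 further: monolayer cultures tested in triplicate, compound exposure for three days against DMSO vehicle controls, EC50 fitted from dose-response curves and averaged across all tests and lots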
HUVEC = experiment: Cytotoxicity assay (monolayer), HUVEC; assay type: cell-based; conditions: ML (monolayer), read-out: HUVEC (EC50 Ave) ML
[3] = system: Normal human foreskin fibroblasts (HFF); conditions: read-out: HFF (EC50 Ave) ML; HFF, ML (monolayer)
Akt = Akt (Homo sapiens, UniProt P31749); experiment: Akt kinase assay (PKLight ATP utilization, substrate phosphorylation as % of parent peptide); assay type: biochemical; set-up: purchased Upstate (Charlottesville, Va.) 14-276
Chain of Akt (P31749 whole entry): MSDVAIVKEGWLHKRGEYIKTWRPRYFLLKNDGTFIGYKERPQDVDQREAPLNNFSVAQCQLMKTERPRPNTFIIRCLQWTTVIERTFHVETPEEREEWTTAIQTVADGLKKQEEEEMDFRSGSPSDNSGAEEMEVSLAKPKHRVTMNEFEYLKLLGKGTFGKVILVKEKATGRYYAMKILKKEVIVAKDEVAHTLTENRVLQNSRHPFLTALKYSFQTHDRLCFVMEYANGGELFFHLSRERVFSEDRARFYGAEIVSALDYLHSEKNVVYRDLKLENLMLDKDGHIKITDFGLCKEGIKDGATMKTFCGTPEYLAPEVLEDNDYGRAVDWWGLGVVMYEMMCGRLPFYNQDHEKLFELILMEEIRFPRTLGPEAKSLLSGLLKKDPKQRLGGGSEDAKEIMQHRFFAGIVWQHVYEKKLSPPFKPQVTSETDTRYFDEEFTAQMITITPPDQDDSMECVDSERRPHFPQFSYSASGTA
Method: Another test may involve monitoring the consumption of ATP. For example, ATP concentrations at time 0 or after 4 hour incubation may be monitored by luciferase reaction (PKLight kit obtained from Cambrex Corporation, One Meadowlands Plaza, East Rutherford, N.J. 07073), which generate a luminescence readout in the presence of ATP. Assays are initiated by mixing a kinase and a peptide in the presence of 40 μM ATP. After 4 hour of incubation at 30° C., PKLight reagent is added and mixed well, and luminescence readout measured. The rate of peptide phosphorylation is then directly related to the rate of decrease in the observed luminescence. Based on the first test, linkers of appropriate lengths and peptides with an effective amount of kinase activity which may be expected to be retained in the drug conjugate may be found.
Human Src (#14-326) and Akt (#14-276) kinases were purchased from Upstate (Charlottesville, Va.). Kinase reactions were carried out in 50 μl kinase reaction cocktail (25 mM Tris-HCl, pH 7.5, 5 μM β-glycerophosphate, 2 mM DTT, 0.1 mM Na3VO4, 10 mM MgCl2, 1 mg/ml BSA, […], 0.5 to 1.0 units enzyme). Substrates (peptide or drug-peptide conjugate in […]) were added (25, 50 and 100 μM) and the reaction was incubated for 2-5 hours at 30° C. PKLight reagent (23 μl) (Cambrex BioSciences, Rockland, Me.) was mixed with […] of the above kinase reaction and ATP utilization relative to no substrate and no ATP controls was determined by measuring luminescence with a SpectraMax Gemini EM plate reader (Molecular Devices, Sunnyvale, Calif.). Peptide substrates for Src and Akt have been described. For examples, see Lou et al. Letters in Peptide Science, 2, 289-296 (1995); Lou et al. Bioorganic & Medicinal Chemistry, 4, 677-682 (1996); Alessi et al. FEBS Letters, 399, 333-338 (1996). Substrate phosphorylation potential was determined from the linear portion of the substrate concentration dose response as a percentage of the activity observed with the parent peptide used for drug conjugation.

Human Src = molecular target: T1, Human Src (Homo sapiens, UniProt P12931); experiment: Src kinase assay (PKLight ATP utilization, substrate phosphorylation as % of parent peptide); assay type: biochemical
T1 construct: purchased Upstate (Charlottesville, Va.) 14-326
In short: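 Recombinant human Src or Akt phosphorylated peptide or drug–peptide conjugate substrates (25, 50, 100 μM) at 30° C for 2–5 hours, in Tris-HCl pH 7.5 buffer with MgCl2 and ATP. ATP use was read by luciferase luminescence against no-substrate and no-ATP controls. Phosphorylation was taken from the linear range and expressed as % of the parent peptide.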

MCF-7 cells = conditions: read-out: MCF7 (EC50 Ave) SA; MCF7, SA (soft agar)
HT-29 cells = conditions: read-out: HT29 (EC50 Ave) SA; HT29, SA (soft agar)

Row | Molecule | Relative Percent Remaining at 0 hr ([1]; 0 hr) [%] | remaining at 4 h, 10 μM ([1]; bovine, 4 hr, read-out: Relative Percent Remaining at 4 hr) [%] | remaining at 8 h, 10 μM ([1]; bovine, 8 hr, read-out: Relative Percent Remaining at 8 hr) [%] | remaining at 24 h, 10 μM ([1]; bovine, 24 hr, read-out: Relative Percent Remaining at 24 hr) [%] | remaining at 72 h, 10 μM ([1]; bovine, 72 hr, read-out: Relative Percent Remaining at 72 hr) [%] | Ave. MPA Act. (tubulin) | EC50 (MCF-7 breast carcinoma) [µM] | EC50 [2] [µM] | EC50 (HUVEC) [µM] | EC50 [3] [µM] | Ave. Akt Kinase Act. (Akt) | Average src kinase activity (Human Src) | EC50 (MCF-7 cells) [µM] | EC50 (HT-29 cells) [µM]
1 | CC(=O)O[C@H]1C(=O)[C@@]2(C)[C@H]([C@H](OC(=O)c3ccccc3)[C@]3(O)C[C@H](OC(=O)[C@H](O)[C@@H](NC(=O)c4ccccc4)c4ccccc4)C(C)=C1C3(C)C)[C@]1(OC(C)=O)CO[C@@H]1C[C@@H]2O [Paclitaxel, reference compound] | 100 | 73 | 59 | 28 | < 3 |  |  |  |  |  |  |  |  | 
2 | Ph(C═O)-RPRTSSF-PEG(11)-3Am-VBL (N-benzoyl; PEG(11) linker; vinblastine conjugate) |  |  |  |  |  | C (C>80) | 0.02 to 0.1 | 0.02 to 0.1 | 0.02 to 0.1 | 0.02 to 0.1 | C (C>40) |  |  | 
3 | Ac-RSRTSSF-PEG(13)-10Ca-PXL (N-acetyl; PEG(13) linker; paclitaxel conjugate) |  |  |  |  |  | C (C>80) |  |  |  |  | C (C>40) |  |  | 
4 | Pv-RSRTSSF-PEG(11)-3Am-VBL (Piv-RSRTSSF-{PEG(11)-3Am‑VBL}; also: 2 TFA salt) |  |  |  |  |  | C (C>80) | > 0.1 | > 0.1 | > 0.1 | > 0.1 | C (C>40) |  |  | 
5 | Pv-GRPRTSSFAE(DMAB)G-3Am-VBL (Piv-GRPRTSSFAE(DMAB)G-{3Am‑VBL″}; not fully specified; reading uncertain) |  |  |  |  |  | C (C>80) | > 0.1 | > 0.1 | > 0.1 | > 0.1 | C (C>40) |  |  | 
6 | Ac-GRPRTSSFAEG-3Am-VBL (Ac-GRPRTSSFAEG-{3Am-VBL}; reading uncertain; also: TFA salt, printed as Ac-GRPRTSSFAEG-3Am-VBL) |  |  |  |  |  | C (C>80) | 0.02 to 0.1 | 0.02 to 0.1 | < 0.02 | 0.02 to 0.1 | C (C>40) |  |  | 
7 | BOC-RPRTSSF-PEG(11)-3Am-VBL (N-BOC; PEG(11) linker; vinblastine conjugate) |  |  |  |  |  | C (C>80) | 0.02 to 0.1 | 0.02 to 0.1 | 0.02 to 0.1 | 0.02 to 0.1 | C (C>40) |  |  | 
8 | CBz-GRPRTSSFAEG-3Am-VBL (Cbz-GRPRTSSFAEG-{3Am-VBL}; reading uncertain; also: printed as CBz-GRPRTSSFAEG-3Am-VBL) |  |  |  |  |  | C (C>80) | > 0.1 | > 0.1 | > 0.1 | > 0.1 | C (C>40) |  |  | 
9 | Pv-RSRKESY-PEG(13)-10Ca-PXL (Piv-RSRKESY-{PEG(13)-10Ca‑PXL}; also: 2 TFA salt) |  |  |  |  |  | C (C>80) |  |  |  |  | C (C>40) |  |  | 
10 | Pv-RSRTSSFAEG-PEG(13)-10Ca-PXL (Piv-RSRTSSFAEG-{PEG(13)-10Ca‑PXL}; also: 2 TFA salt) |  |  |  |  |  | C (C>80) |  |  |  |  | C (C>40) |  |  | 
11 | Ac-EYIYGSFR-PEG(11)-3Am-VBL (N-acetyl, PEG11, vinblastine conjugate) |  |  |  |  |  | C (C>80) | > 0.1 | > 0.1 | > 0.1 | > 0.1 |  | B (B=20-40) | > 0.1 | > 0.1
12 | BOC-E(Bzl)YIFGSFK(BOC)-PEG(11)-3Am-VBL |  |  |  |  |  | A (A<50) | 0.02 to 0.1 | > 0.1 | > 0.1 | > 0.1 |  | A (A<20) | < 0.02 | 0.02 to 0.1
13 | Ac-YIYGSFR-PEG(11)-3Am-VBL (N-acetyl; PEG(11) linker; vinblastine conjugate) |  |  |  |  |  | B (B=50-80) | 0.02 to 0.1 | 0.02 to 0.1 | > 0.1 | > 0.1 |  | C (C>40) | 0.02 to 0.1 | > 0.1
14 | BOC-EYIYGSFK(BOC)-PEG(11)-3Am-VBL (N-BOC; BOC side chain; PEG(11); vinblastine conjugate) |  |  |  |  |  | C (C>80) | > 0.1 | > 0.1 | > 0.1 | > 0.1 |  | B (B=20-40) | > 0.1 | > 0.1
15 | CBz-RPRTSSF-PEG(29)-3Am-VBL (N-CBz; PEG(29) linker; vinblastine conjugate) |  |  |  |  |  | B (B=50-80) | > 0.1 | > 0.1 | > 0.1 | > 0.1 | C (C>40) |  | > 0.1 | 
16 | Pv-GRPRTSSFAEG-PEG(13)-10Ca-PXL (Piv-GRPRTSSFAEG-{PEG(13)-10Ca‑PXL}; also: TFA salt) |  |  |  |  |  | C (C>80) | > 0.1 | > 0.1 | > 0.1 | > 0.1 | C (C>40) |  |  | 
17 | CBz-E(Bzl)YIFGSFK-PEG(11)-3Am-VBL (CBz-Glu(Bzl) N-terminal; PEG(11); vinblastine conjugate) |  |  |  |  |  | B (B=50-80) | > 0.1 | > 0.1 | > 0.1 | > 0.1 |  | C (C>40) | > 0.1 | > 0.1
18 | Pv-E(DMAB)YIYGSFR-PEG(11)-3Am-VBL (EYIYGSFR) |  |  |  |  |  | B (B=50-80) | 0.02 to 0.1 | > 0.1 | 0.02 to 0.1 | > 0.1 |  | A (A<20) | 0.02 to 0.1 | 0.02 to 0.1
19 | Pv-YIFGSFR-PEG(13)-10Ca-PXL (Piv-YIFGSFR-{PEG(13)″-10Ca‑PXL}; also: TFA salt) |  |  |  |  |  | A (A<50) | > 0.1 | > 0.1 | > 0.1 | > 0.1 |  | Zero | 0.02 to 0.1 | > 0.1
20 | Pv-GRPRTSSFAEG-3Am-VBL (Piv-GRPRTSSFAEG-{3Am‑VBL}; also: 2 TFA salt) |  |  |  |  |  | C (C>80) | > 0.1 | > 0.1 | > 0.1 | > 0.1 | C (C>40) |  |  | 
21 | Ac-RPRTSSF-PEG(11)-3Am-VBL (N-acetyl; PEG(11) linker; vinblastine conjugate) |  |  |  |  |  | C (C>80) | 0.02 to 0.1 | 0.02 to 0.1 | > 0.1 | 0.02 to 0.1 | C (C>40) |  |  | 
